Experimental data: patent publication US20040127439A1, “Introduction of the wld gene for prevention of axonal degeneration in neurological diseases” (priority 2004, published 2004)

Columns and labels:
Type in all cases: cell-based
[1] = test system: C57BL/6 cultured neurites; assay: Vincristine neuropathy in C57BL/6 mouse DRG cultures
Procedure: (§1) DRGs were allowed to mature for 5 days to create a lush halo of neurites. […] This date was defined as treatment day 0. […] Cultures were monitored and imaged on day 0, day 4, day 8 and day 10 of treatment using video microscopy.
(§2) Measures of axonal survival were the length of longest remaining axon, and the area of remaining DRG halo, as determined by serial phase-contrast video microscopy (FIG. 6). The axonal length was measured from the center of the DRG to the visible distal end of the axon. […] Data were thus analyzed as percent of day 0.

Wld^S DRG axons = assay: Vincristine withdrawal in Wld^S mouse DRG cultures; conditions: 0.05 μM vincristine for 24 hours
Procedure: (§3) The methods for DRG culture have been previously described.
(§4) Cultures were measured for length of longest axon and area of the DRG halo at days 4, 8, 12, 16 and 20. Lengths were measured from the center of the DRG to the visible distal end of the axon, and areas were calculated by tracing the circumference crested by connecting the tips of the remaining axons. […] Comparisons were made between quantitative data for C57BL/6 and Wld^S axons. For assessment of growth, day 4 observations in Wld^S were compared to all succeeding days using ANOVA for repeated measures.

C57BL/6 DRG axons = assay: Vincristine withdrawal in C57BL/6 mouse DRG cultures; conditions: 0.05 μM vincristine for 24 hours, 4 days after exposure
Procedure: as §3, §4

Wld^S cultured neurites = assay: Vincristine neuropathy in Wld^S mouse DRG cultures; conditions: for halo area at day 10 compared to day 0 / length of longest axons at day 10 compared to day 0: Wld^S
Procedure: as §1, §2

rat DRG cultures = assay: Resistance to vincristine-induced axonal degeneration in adenovirus-infected rat DRG cultures
Procedure: Adenovirus was generated as previously described. Briefly, the modified transfer vector was linearized with NheI for preparation of the recombinant adenovirus. […] The transfected 293A cells were trypsinized and diluted with 293A cells, seeded into the 96-well tissue culture plates, and kept at 37 C, 5% CO2 for several days. […] Recombinant adenoviruses were purified from wild type viruses by the limiting dilution method. Adenovirus titers were determined by TCID-50 (Tissue Culture Infectious Dose).
Cultures had extended neurites for 6 days before introduction of the transgene. Transgene expression, indicated by GFP fluorescence, was monitored by fluorescence microscopy.
The methods for DRG culture have been previously described. […] Suppression of Schwann cell growth was accomplished by addition of fluorodeoxyuridine and uridine (both at a dose of 10^−6M, Sigma) on days 2-5.
E15 DRG were grown in culture for 6 days and then exposed to adenovirus (with or without the Wld^Stransgene) as described above. […] Length and area measurements were performed and analyzed as described above for mouse cultures.

[2] = vincristine 0.01 μM, Day 4, C57BL/6
[3] = vincristine 0.01 μM, Day 10, C57BL/6
[4] = vincristine 0.02 μM, Day 4, C57BL/6
[5] = vincristine 0.02 μM, Day 8, C57BL/6
[6] = vincristine 0.02 μM, Day 10, C57BL/6
[7] = vincristine 0.05 μM, Day 4, C57BL/6
[8] = vincristine 0.05 μM, Day 8, C57BL/6
[9] = vincristine 0.05 μM, Day 10, C57BL/6
[10] = vincristine 0.1 μM, Day 4, C57BL/6
[11] = vincristine 0.1 μM, Day 8, C57BL/6
[12] = vincristine 0.1 μM, Day 10, C57BL/6
[13] = Day 4, continuous 0.01 μM vincristine
[14] = Day 8, continuous 0.01 μM vincristine
[15] = Day 10, continuous 0.01 μM vincristine

Vincristine sulfate salt
halo area at day 10 compared to day 0 ([1]; C57BL/6, vincristine 0.01 μM): 42.86±7.30%
length of longest axons at day 10 compared to day 0 ([1]; C57BL/6, vincristine 0.01 μM): 50.99±5.97%
halo area at day 10 compared to day 0 ([1]; C57BL/6, vincristine 0.1 μM): 0.45±0.09%
length of longest axons at day 10 compared to day 0 ([1]; C57BL/6, vincristine 0.1 μM): 3.56±0.62%
Area of DRG Halo [1, 2]: 7.34 ± 0.78 mm^2
Length of Longest Neurite [1, 2]: 1.77 ± 0.12 mm
Area of DRG Halo ([1]; vincristine 0.01 μM, Day 8, C57BL/6): 5.79 ± 0.86 mm^2
Area of DRG Halo [1, 3]: 4.42 ± 0.85 mm^2
Length of Longest Neurite [1, 3]: 1.22 ± 0.17 mm
Area of DRG Halo [1, 4]: 4.56 ± 1.10 mm^2
Length of Longest Neurite [1, 4]: 1.28 ± 0.22 mm
Area of DRG Halo [1, 5]: 1.14 ± 0.49 mm^2
Length of Longest Neurite [1, 5]: 0.53 ± 0.16 mm
Area of DRG Halo [1, 6]: 0.56 ± 0.27 mm^2
Length of Longest Neurite [1, 6]: 0.41 ± 0.13 mm
Area of DRG Halo [1, 7]: 1.20 ± 0.47 mm^2
Length of Longest Neurite [1, 7]: 0.32 ± 0.08 mm
Area of DRG Halo [1, 8]: 0.05 ± 0.01 mm^2
Length of Longest Neurite [1, 8]: 0.09 ± 0.01 mm
Area of DRG Halo [1, 9]: 0.04 ± 0.01 mm^2
Length of Longest Neurite [1, 9]: 0.07 ± 0.01 mm
Area of DRG Halo [1, 10]: 0.46 ± 0.19 mm^2
Length of Longest Neurite [1, 10]: 0.30 ± 0.09 mm
Area of DRG Halo [1, 11]: 0.04 ± 0.01 mm^2
Length of Longest Neurite [1, 11]: 0.08 ± 0.01 mm
Area of DRG Halo [1, 12]: 0.04 ± 0.01 mm^2
Length of Longest Neurite [1, 12]: 0.08 ± 0.01 mm
duration of growth arrest (Wld^S DRG axons): 10 days
area after resumed growth, % of control values (Wld^S DRG axons; 20-day observation period): 150%
length after resumed growth, % of control values (Wld^S DRG axons; 20-day observation period): 125%
DRG area, % of control values (C57BL/6 DRG axons): 32%
axon length, % of control values (C57BL/6 DRG axons): 35%
halo area at day 10 compared to day 0 (Wld^S cultured neurites; vincristine 0.01 μM): 64.75±2.62%
length of longest axons at day 10 compared to day 0 (Wld^S cultured neurites; vincristine 0.01 μM): 84.33±2.54%
halo area at day 10 compared to day 0 (Wld^S cultured neurites; vincristine 0.1 μM): 7.92±3.83%
length of longest axons at day 10 compared to day 0 (Wld^S cultured neurites; vincristine 0.1 μM): 10.17±3.22%
Area of DRG Halo (Wld^S cultured neurites; vincristine 0.01 μM, Day 4, Wld^S): 7.27 ± 0.51 mm^2
Area of DRG Halo (Wld^S cultured neurites; vincristine 0.01 μM, Day 8, Wld^S): 6.50 ± 0.56 mm^2
Area of DRG Halo (Wld^S cultured neurites; vincristine 0.01 μM, Day 10, Wld^S): 5.60 ± 0.51 mm^2
Area of DRG Halo (Wld^S cultured neurites; vincristine 0.02 μM, Day 4, Wld^S): 5.95 ± 0.72 mm^2
Area of DRG Halo (Wld^S cultured neurites; vincristine 0.02 μM, Day 8, Wld^S): 3.39 ± 0.64 mm^2
Area of DRG Halo (Wld^S cultured neurites; vincristine 0.02 μM, Day 10, Wld^S): 2.53 ± 0.59 mm^2
Area of DRG Halo (Wld^S cultured neurites; vincristine 0.05 μM, Day 4, Wld^S): 4.17 ± 0.45 mm^2
Area of DRG Halo (Wld^S cultured neurites; vincristine 0.05 μM, Day 8, Wld^S): 1.63 ± 0.48 mm^2
Area of DRG Halo (Wld^S cultured neurites; vincristine 0.05 μM, Day 10, Wld^S): 0.80 ± 0.36 mm^2
Area of DRG Halo (Wld^S cultured neurites; vincristine 0.1 μM, Day 4, Wld^S): 5.30 ± 0.86 mm^2
Area of DRG Halo (Wld^S cultured neurites; vincristine 0.1 μM, Day 8, Wld^S): 2.00 ± 0.66 mm^2
Area of DRG Halo (Wld^S cultured neurites; vincristine 0.1 μM, Day 10, Wld^S): 0.59 ± 0.28 mm^2
Area of DRG halo (% of Day 0) (rat DRG cultures; [13]): 30.43 ± 5.05 % of Day 0
Length of axons (% of Day 0) (rat DRG cultures; [13]): 48.79 ± 4.72 % of Day 0
Area of DRG halo (% of Day 0) (rat DRG cultures; [14]): 13.23 ± 1.52 % of Day 0
Length of axons (% of Day 0) (rat DRG cultures; [14]): 35.86 ± 3.76 % of Day 0
Area of DRG halo (% of Day 0) (rat DRG cultures; [15]): 9.78 ± 2.22 % of Day 0
Length of axons (% of Day 0) (rat DRG cultures; [15]): 26.28 ± 4.08 % of Day 0
